From US5373040A, “Amorphous solid modification of 2,2',2"-nitrilo[triethyl-tris-(3,3',5,5'-tetra-tert-butyl-1,1'-biphenyl- 2,2'-diyl)phosphite]” (Ciba-Geigy Corporation, priority 1993, dated 1994)

Experiments:
[1] = Stabilization of poly(butylene terephthalate): yellowness index; details: 0.3% by weight; versus control unstabilized PBT
Description: (§1) Poly(butylene terephthalate), PBT (RYNITE® 9160, DuPont) is tumble blended with 0.3% by weight of the compound of instant Example 1. The polymer is then extruded and pelletized at 260° C. A portion of the collected pellets are reextruded under the same conditions for a second pass. The remainder from the first extrusion is injection molded into 2"×2"×125 mil (5.08 cm×5.08 cm×3.175 mm) plaques at 540° F. (282° C.) with a 100° C. mold temperature in a BOY 30M molder. Intrinsic viscosities of the second pass extrudate and the injection molded plaques are determined.
The plaques are measured for yellowness index (color) using ASTM D 1925-70.

[2] = Stabilization of 6,6-nylon: yellowness index; details: 0.5% by weight; versus unstabilized control plaques
Description: 6,6-Nylon (ZYTEL® 101, DuPont) is thoroughly dried in a vacuum oven and tumble blended with 0.5% by weight of the compound of instant Example 1. The polyamide is extruded on a 1" (2.54 cm) MPM extruder at 575° F. (302° C.). The collected pellets are injection molder at 575° F. (302° C.) with the mold at 150° C. in a BOY 30M injection molder. The plaques obtained are measured for yellowness index (YI) values using ASTM D1925-70.

[3] = Solubility in lubricating oil (Mobil BB oil); assay type: physicochemical
Description: The following experiments are performed to determine the solubility of amorphous compound A and crystalline compound B in Mobil BB oil. Both compounds have the same uniform particle sizes (40-70 micron).
Compound A=amorphous form of 2,2',2"-nitrilo-[triethyl-tris-(3,3',5,5'-tetra-tert-butyl-1,1'-biphenyl-2,2'-diyl) phosphite], prepared in accordance with instant Example 1.
Compound B=crystalline form of 2,2',2"-nitrilo[triethyl-tris-(3,3',5,5'-tetra-tert-butyl-1,1'-biphenyl-2,2'-diyl) phosphite], prepared in accordance with Example 4 of U.S. Pat. No. 4,318,845.
Into a vial of 980 mg. of Mobil BB oil is added 20 mg. of compound A at ambient temperature. For the first 30 minutes, the vial is shaken every 10 minutes. After the initial 30 minutes, the vial is left standing.
Into a vial of 980 mg. of Mobil BB oil is added 20 mg. of compound B at ambient temperature. For the first 30 minutes, the vial is shaken every 10 minutes. After the initial 30 minutes, the vial is left standing.
Into a vial of 980 mg. of Mobil BB oil is added 20 mg. of compound A at ambient temperature. The vial is then placed into a 60° C. oil bath.
Into a vial of 980 mg. of Mobil BB oil is added 20 mg. of compound B at ambient temperature. The vial is then placed into a 60° C. oil bath.
Into a vial of 990 mg. of Mobil BB oil is added 10 mg. of compound A at ambient temperature. […] is shaken every 10 minutes. After the initial 30 minutes, the vial is left standing.
Into a vial of 990 mg. of Mobil BB oil is added 10 mg. of compound B at ambient temperature. […] is shaken every 10 minutes. After the initial 30 minutes, the vial is left standing.

[4] = Stabilization of poly(butylene terephthalate): intrinsic viscosity; details: 0.3% by weight; second pass extrudate and injection molded plaques; versus PBT containing no stabilizer
Description: as §1

[5] = Stabilization of unsaturated elastomer: time until onset of crosslinking; details: 0.5% by weight, 150° C., 60 rpm; versus unstabilized SBR
Description: The instant compound of Example 1 is evaluated in an emulsion of SBR (cold polymerized, 23.5% styrene with a 52 Mooney Viscosity). The unstabilized SBR (60 g) is added to the mixing chamber of a Brabender Plasticorder set at 150° C. and 60 rpm. After 30 seconds, 0.5% by weight of the compound of instant Example 1 is added to the chamber. Stability of the SBR is determined by the time until onset of crosslinking of the rubber as indicated by an increase in the torque curve.

[6] = Process stabilization of polypropylene: yellowness index of plaques (ASTM D1925); details: in the presence of a representative phenolic antioxidant; versus prior art compound of U.S. Pat. No. 4,318,845
Text: The test additives are incorporated into the polypropylene by dry blending or, when the additive is a liquid, using a minimum amount of methylene chloride solvent. The solvent is then removed by evaporation under reduced pressure.

[7] = compared to the prior art crystalline form

## CC(C)(C)c1cc(C(C)(C)C)c2op(OCCN(CCOp3oc4c(C(C)(C)C)cc(C(C)(C)C)cc4c4cc(C(C)(C)C)cc(C(C)(C)C)c4o3)CCOp3oc4c(C(C)(C)C)cc(C(C)(C)C)cc4c4cc(C(C)(C)C)cc(C(C)(C)C)c4o3)oc3c(C(C)(C)C)cc(C(C)(C)C)cc3c2c1 [Example 1, 2,2',2"-nitrilo[triethyl-tris-(3,3',5,5'-tetra-tert-butyl-1,1'-biphenyl-2,2'-diyl)phosphite]]
[1]
  yellowness index (color): lower YI values (less discoloration)
[2]
  yellowness index (YI): lower YI values (less discoloration)
[3]; 1% by weight in Mobil BB oil, RT, 1.5 hrs., listed as A
  Observation: Clear solution
[3]; 1% by weight in Mobil BB oil, RT, 1.5 hrs., listed as compound A
  Observation: clear solution
[3]; 1% by weight in Mobil BB oil, RT, listed as A
  Time to clear solution: 1.5 h
[3]; 1% by weight in Mobil BB oil, RT, listed as compound A
  Time to clear solution: 1.5 h
[3]; 2% by weight in Mobil BB oil, 60° C. oil bath, 10 min., listed as A
  Observation: Clear solution
[3]; 2% by weight in Mobil BB oil, 60° C. oil bath, 10 min., listed as compound A
  Observation: clear solution
[3]; 2% by weight in Mobil BB oil, 60° C. oil bath, listed as A
  Time to clear solution: 0.167 h
[3]; 2% by weight in Mobil BB oil, 60° C. oil bath, listed as compound A
  Time to clear solution: 0.167 h
[3]; 2% by weight in Mobil BB oil, RT, 2.5 hrs., listed as A
  Observation: Clear solution
[3]; 2% by weight in Mobil BB oil, RT, 2.5 hrs., listed as compound A
  Observation: clear solution
[3]; 2% by weight in Mobil BB oil, RT, listed as A
  Time to clear solution: 2.5 h
[3]; 2% by weight in Mobil BB oil, RT, listed as compound A
  Time to clear solution: 2.5 h
[3]; [7]
  rate of dissolving in lubricants: faster rate of dissolving
  rate of dissolving in organic materials, such as in polymers and in lubricants: faster rate of dissolving
  solubility in lubricants: better solubility
  solubility in organic materials, such as in polymers and in lubricants: better solubility
[4]
  retention of intrinsic viscosity value: better retention of intrinsic viscosity value
[5]
  induction time till crosslinking occurs: longer induction time
[6]
  stabilizing polypropylene against discoloration (change in yellowness index): equal or more effective
